According to patent US20220233549A1, “METHOD FOR ALPHAVIRUS INHIBITION” (priority 2019, published 2022):

Tested on: CHIKV 181/clone25
Experiment: CHIKV cytopathic effect (CPE) protection assay in Vero cells
Format: cell-based
Settings: Chikungunya virus; CHIKV 181/clone25, Vero cells, MOI=0.01, 48 hrs, protection from CPE (crystal violet, absorbance 595nm)

O=C(CC1Sc2ncccc2NC1=O)NCc1ccc(Cl)c(Cl)c1 (centres unmarked) [Example 49, N-(3,4-dichlorobenzyl)-2-(2-oxo-2,3-dihydro-1H-pyrido[2,3-b][1,4]thiazin-3-yl)acetamide]
EC50: > 100 µM

O=C(CC1Sc2ncccc2NC1=O)NCc1ccc(F)c(F)c1 (centres unmarked) [Example 50, N-(3,4-difluorobenzyl)-2-(2-oxo-2,3-dihydro-1H-pyrido[2,3-b][1,4]thiazin-3-yl)acetamide]
EC50: 10 to 49.9 µM

O=C(CC1Sc2ncccc2NC1=O)NCc1cc(F)c(F)c(F)c1 (centres unmarked) [Example 51, 2-(2-oxo-2,3-dihydro-1H-pyrido[2,3-b][1,4]thiazin-3-yl)-N-(3,4,5-trifluorobenzyl)acetamide]
EC50: 50 to 99.9 µM

O=C(CC1Sc2ncccc2NC1=O)NCc1cc(F)cc(F)c1 (centres unmarked) [Example 52, N-(3,5-difluorobenzyl)-2-(2-oxo-2,3-dihydro-1H-pyrido[2,3-b][1,4]thiazin-3-yl)acetamide]
EC50: > 100 µM

O=C(CC1Sc2ncccc2NC1=O)NCc1ccc(Cl)cc1 (centres unmarked) [Example 53, N-(4-chlorobenzyl)-2-(2-oxo-2,3-dihydro-1H-pyrido[2,3-b][1,4]thiazin-3-yl)acetamide]
EC50: 10 to 49.9 µM

O=C(CC1Sc2ncccc2NC1=O)NCc1cccc(Cl)c1 (centres unmarked) [Example 54, N-(3-chlorobenzyl)-2-(2-oxo-2,3-dihydro-1H-pyrido[2,3-b][1,4]thiazin-3-yl)acetamide]
EC50: > 100 µM

O=C(CC1Sc2ncccc2NC1=O)NCc1cccc(F)c1 (centres unmarked) [Example 55, N-(3-fluorobenzyl)-2-(2-oxo-2,3-dihydro-1H-pyrido[2,3-b][1,4]thiazin-3-yl)acetamide]
EC50: > 100 µM

O=C(CC1Sc2ncccc2NC1=O)NCc1ccc(F)cc1 (centres unmarked) [Example 56, N-(4-fluorobenzyl)-2-(2-oxo-2,3-dihydro-1H-pyrido[2,3-b][1,4]thiazin-3-yl)acetamide]
EC50: < 10 µM

O=C(CC1Sc2ncccc2NC1=O)NCCc1ccc(F)cc1 (centres unmarked) [Example 57, N-(4-fluorophenethyl)-2-(2-oxo-2,3-dihydro-1H-pyrido[2,3-b][1,4]thiazin-3-yl)acetamide]
EC50: 10 to 49.9 µM

O=C(CC1Sc2ncccc2NC1=O)NCCC1CCCCC1 (centres unmarked) [Example 58, N-(2-cyclohexylethyl)-2-(2-oxo-2,3-dihydro-1H-pyrido[2,3-b][1,4]thiazin-3-yl)acetamide]
EC50: 10 to 49.9 µM

O=C(CC1Sc2ccccc2NC1=O)NCC1CCCCC1 (centres unmarked) [Example 59, N-(cyclohexylmethyl)-2-(3-oxo-3,4-dihydro-2H-benzo[b][1,4]thiazin-2-yl)acetamide]
EC50: > 100 µM

O=C(CC1Sc2ncccc2NC1=O)NCC1CCC(F)(F)CC1 (centres unmarked) [Example 60, N-((4,4-difluorocyclohexyl)methyl)-2-(2-oxo-2,3-dihydro-1H-pyrido[2,3-b][1,4]thiazin-3-yl)acetamide]
EC50: 10 to 49.9 µM

CCC(CC)CNC(=O)CC1Sc2ncccc2NC1=O (centres unmarked) [Example 61, N-(2-ethylbutyl)-2-(2-oxo-2,3-dihydro-1H-pyrido[2,3-b][1,4]thiazin-3-yl)acetamide]
EC50: 10 to 49.9 µM

O=C(CC1Sc2ncccc2NC1=O)NCC1CCCCCC1 (centres unmarked) [Example 62, N-(cycloheptylmethyl)-2-(2-oxo-2,3-dihydro-1H-pyrido[2,3-b][1,4]thiazin-3-yl)acetamide]
EC50: 10 to 49.9 µM

O=C(CC1Sc2ncccc2NC1=O)NCC1CCCC1 (centres unmarked) [Example 63, N-(cyclopentylmethyl)-2-(2-oxo-2,3-dihydro-1H-pyrido[2,3-b][1,4]thiazin-3-yl)acetamide]
EC50: < 10 µM

CC(C)(C)CCNC(=O)CC1Sc2ncccc2NC1=O (centres unmarked) [Example 64, N-(3,3-dimethylbutyl)-2-(2-oxo-2,3-dihydro-1H-pyrido[2,3-b][1,4]thiazin-3-yl)acetamide]
EC50: > 100 µM

O=C(CC1Nc2ncccc2NC1=O)NCC1CCCCC1 (centres unmarked) [Example 65, N-(cyclohexylmethyl)-2-(2-oxo-1,2,3,4-tetrahydropyrido[2,3-b]pyrazin-3-yl)acetamide]
EC50: > 100 µM

CC1(CNC(=O)CC2Sc3ncccc3NC2=O)CCCCC1 (centres unmarked) [Example 66, N-((1-methylcyclohexyl)methyl)-2-(2-oxo-2,3-dihydro-1H-pyrido[2,3-b][1,4]thiazin-3-yl)acetamide]
EC50: < 10 µM

CC(C)CCCNC(=O)CC1Sc2ncccc2NC1=O (centres unmarked) [Example 67, N-(4-methylpentyl)-2-(2-oxo-2,3-dihydro-1H-pyrido[2,3-b][1,4]thiazin-3-yl)acetamide]
EC50: 10 to 49.9 µM

CC(C)(C)CCCNC(=O)CC1Sc2ncccc2NC1=O (centres unmarked) [Example 68, N-(4,4-dimethylpentyl)-2-(2-oxo-2,3-dihydro-1H-pyrido[2,3-b][1,4]thiazin-3-yl)acetamide]
EC50: 10 to 49.9 µM

CC1(C)CCC(CNC(=O)CC2Sc3ncccc3NC2=O)CC1 (centres unmarked) [Example 69, N-((4,4-dimethylcyclohexyl)methyl)-2-(2-oxo-2,3-dihydro-1H-pyrido[2,3-b][1,4]thiazin-3-yl)acetamide]
EC50: 10 to 49.9 µM

CCCCNC(=O)CC1Sc2ncccc2NC1=O (centres unmarked) [Example 70, N-butyl-2-(2-oxo-2,3-dihydro-1H-pyrido[2,3-b][1,4]thiazin-3-yl)acetamide]
EC50: 50 to 99.9 µM

CCCCCNC(=O)CC1Sc2ncccc2NC1=O (centres unmarked) [Example 71, 2-(2-oxo-2,3-dihydro-1H-pyrido[2,3-b][1,4]thiazin-3-yl)-N-pentylacetamide]
EC50: 10 to 49.9 µM

O=C(CC1Sc2ncccc2NC1=O)NCCCC(F)(F)F (centres unmarked) [Example 72, 2-(2-oxo-2,3-dihydro-1H-pyrido[2,3-b][1,4]thiazin-3-yl)-N-(4,4,4-trifluorobutyl)acetamide]
EC50: > 100 µM

O=C(CC1CCCCC1)NCC1Sc2ncccc2NC1=O (centres unmarked) [Example 73, 2-cyclohexyl-N-((2-oxo-2,3-dihydro-1H-pyrido[2,3-b][1,4]thiazin-3-yl)methyl)acetamide]
EC50: 10 to 49.9 µM

O=C(CC1Sc2ncccc2NC1=O)NCCC(F)(F)F (centres unmarked) [Example 74, 2-(2-oxo-2,3-dihydro-1H-pyrido[2,3-b][1,4]thiazin-3-yl)-N-(3,3,3-trifluoropropyl)acetamide]
EC50: > 100 µM

CCC(C)(C)CNC(=O)CC1Sc2ncccc2NC1=O (centres unmarked) [Example 75, N-(2,2-dimethylbutyl)-2-(2-oxo-2,3-dihydro-1H-pyrido[2,3-b][1,4]thiazin-3-yl)acetamide]
EC50: < 10 µM

CCC1(CNC(=O)CC2Sc3ncccc3NC2=O)CCCCC1 (centres unmarked) [Example 76, N-((1-ethylcyclohexyl)methyl)-2-(2-oxo-2,3-dihydro-1H-pyrido[2,3-b][1,4]thiazin-3-yl)acetamide]
EC50: < 10 µM

O=C(CC1Sc2ncccc2NC1=O)NCC1(O)CCCCC1 (centres unmarked) [Example 77, N-((1-hydroxycyclohexyl)methyl)-2-(2-oxo-2,3-dihydro-1H-pyrido[2,3-b][1,4]thiazin-3-yl)acetamide]
EC50: < 10 µM

O=C(CC1Sc2ncccc2NC1=O)NCC1(F)CCCCC1 (centres unmarked) [Example 78, N-((1-fluorocyclohexyl)methyl)-2-(2-oxo-2,3-dihydro-1H-pyrido[2,3-b][1,4]thiazin-3-yl)acetamide]
EC50: < 10 µM

COC1(CNC(=O)CC2Sc3ncccc3NC2=O)CCCCC1 (centres unmarked) [Example 79, N-((1-methoxycyclohexyl)methyl)-2-(2-oxo-2,3-dihydro-1H-pyrido[2,3-b][1,4]thiazin-3-yl)acetamide]
EC50: < 10 µM

NC1(CNC(=O)CC2Sc3ncccc3NC2=O)CCCCC1 (centres unmarked) [Example 80, N-((1-aminocyclohexyl)methyl)-2-(2-oxo-2,3-dihydro-1H-pyrido[2,3-b][1,4]thiazin-3-yl)acetamide]
EC50: > 100 µM

CCCOC1(CNC(=O)CC2Sc3ncccc3NC2=O)CCCCC1 (centres unmarked) [Example 81, 2-(2-oxo-2,3-dihydro-1H-pyrido[2,3-b][1,4]thiazin-3-yl)-N-((1-propoxycyclohexyl)methyl)ace-tamide]
EC50: 10 to 49.9 µM

COCC1(CNC(=O)CC2Sc3ncccc3NC2=O)CCCCC1 (centres unmarked) [Example 82, N-((1-(methoxymethyl)cyclohexyl)meth-yl)-2-(2-oxo-2,3-dihydro-1H-pyrido[2,3-b][1,4]thiazin-3-yl)acetamide]
EC50: 50 to 99.9 µM

O=C(CC1Sc2cnccc2NC1=O)NCC1CCCCC1 (centres unmarked) [Example 83, N-(cyclohexylmethyl)-2-(2-oxo-2,3-dihydro-1H-pyrido[3,4-b][1,4]thiazin-3-yl)acetamide]
EC50: > 100 µM

O=C(CC1Sc2ccncc2NC1=O)NCC1CCCCC1 (centres unmarked) [Example 84, N-(cyclohexylmethyl)-2-(3-oxo-3,4-dihydro-2H-pyrido[4,3-b][1,4]thiazin-2-yl)acetamide]
EC50: > 100 µM

O=C(CC1Sc2ncccc2NC1=O)NCC1=CCCCC1 (centres unmarked) [Example 85, N-(cyclohex-1-en-1-ylmethyl)-2-(2-oxo-2,3-dihydro-1H-pyrido[2,3-b][1,4]thiazin-3-yl)acetamide]
EC50: 10 to 49.9 µM

O=C(CC1Sc2ncccc2NC1=O)NCC1CC=CCC1 (centres unmarked) [Example 86, N-(cyclohex-3-en-1-ylmethyl)-2-(2-oxo-2,3-dihydro-1H-pyrido[2,3-b][1,4]thiazin-3-yl)acetamide]
EC50: < 10 µM

O=C(CC1Sc2ncc(Br)cc2NC1=O)NCC1CCCCC1 (centres unmarked) [Example 87, 2-(7-bromo-2-oxo-2,3-dihydro-1H-pyrido[2,3-b][1,4]thiazin-3-yl)-N-(cyclohexylmethyl)acetamide]
EC50: 10 to 49.9 µM

O=C(CC1Cc2ncccc2NC1=O)NCC1CCCCC1 (centres unmarked) [Example 88, N-(cyclohexylmethyl)-2-(2-oxo-1,2,3,4-tetrahydro-1,5-naphthyridin-3-yl)acetamide]
EC50: 10 to 49.9 µM

O=C(CC1Cc2ncccc2NC1=O)NCC1(F)CCCCC1 (centres unmarked) [Example 89, N-((1-fluorocyclohexyl)methyl)-2-(2-oxo-1,2,3,4-tetrahydro-1,5-naphthyridin-3-yl)acetamide]
EC50: 10 to 49.9 µM

O=C(CC1Cc2ncccc2NC1=O)NCc1ccc(F)cc1 (centres unmarked) [Example 90, N-(4-fluorobenzyl)-2-(2-oxo-1,2,3,4-tetrahydro-1,5-naphthyridin-3-yl)acetamide]
EC50: 10 to 49.9 µM

O=C(CC1Oc2ncccc2NC1=O)NCC1CCCCC1 (centres unmarked) [Example 91, N-(cyclohexylmethyl)-2-(2-oxo-2,3-dihydro-1H-pyrido[2,3-b][1,4]oxazin-3-yl)acetamide]
EC50: 10 to 49.9 µM

O=C(CC1CNc2cccnc2S1)NCC1CCCCC1 (centres unmarked) [Example 92, N-(cyclohexylmethyl)-2-(2,3-dihydro-1H-pyrido[2,3-b][1,4]thiazin-3-yl)acetamide]
EC50: 10 to 49.9 µM
